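Dose response: 5 concentrations. Exposure: 48 h. Format: 96-well plates. Endpoint: linear interpolation; highest concentration if not reached. Abbreviation: GI50, concentration required for 50% inhibition of growth. TGI denotes the concentration required for complete inhibition of growth.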 Where only a bound is given, the exact number is not on record here.

This passage reports TGI and GI50 results from PubChem BioAssay (NCI).

Holding throughout (experiment): NCI-60 cell line screen, 48 h
Assay [1] deals with COLO 205 colon.
The test system of assay [2] is NCI-H23 lung.
Assay [3] relates to HOP-18 NSCLC.
For assay [4], the system named is M19-MEL melanoma.
Assay [5] relates to UACC-62 melanoma.
Assay [6] relates to SF-539 CNS.
For assay [7], the system named is A498 renal.
Assay [8] concerns HL-60(TB) leukemia.
Assay [9] deals with SK-OV-3 ovarian.
Assay [10] has as its system HS 578T breast.

Consider `Cn1nc(-c2ccccc2)c2c(/C=C/c3ccc(Cl)cc3)onc2c1=O`, for which the TGI in [1] is over 100 µM; in assay [2], over 100 µM; in assay [3] it was 26.8 µM; in assay [4], over 100 µM; in assay [5] it was over 100 µM; in assay [6], 72.8 µM.

Take `O=C1c2cccc([N+](=O)[O-])c2C(=O)c2nccnc21`: the TGI in assay [2] stood at 2.98 µM; in assay [7], 17.3 µM; in assay [3], 3.06 µM; in assay [4] it was 0.276 µM; in [5] it was 2.62 µM; in assay [6], 2.93 µM. The TGI in [8] turned out to be 4.81 µM.

Regarding `CC12CCCC(C#N)(C1)OC2=O` (stereo not drawn), the TGI in [2], in [7], in assay [4], in [5], in assay [6] and in assay [9] was over 100 µM throughout. In assay [8], this molecule registered a TGI of over 100 µM.

Consider `N.N.N.N.N.N#Cc1nn[n-]n1.[Cl-].[Co+3]`, for which the GI50 in [1], in [2], in assay [3], in assay [5], in [6] and in [9] was over 100 µM each time. For the same molecule, the GI50 in assay [8] is over 100 µM. Besides, the TGI in assay [1], in assay [2], in [3], in [5], in assay [6] and in assay [9] was over 100 µM throughout. In assay [8], the TGI was over 100 µM.

Consider `CN(C)CCCOc1ccc(/C=C2/CCC/C(=C/c3ccc(OCCCN(C)C)cc3)C2=O)cc1`, for which the TGI turned out to be 3.2 µM in assay [1]; 3.63 µM in assay [2]; 3.65 µM in [7]; 12.3 µM in assay [3]; 3.74 µM in assay [5]; 3.02 µM in [6]. In addition, the results for the TGI in [9] and in [8] were 4.18 µM and 3.65 µM, respectively.

Consider `COc1cccc(N2C(=O)/C(=C/c3ccc(N(CCC#N)CCC#N)cc3)N=C2c2cc([N+](=O)[O-])ccc2Cl)c1`, for which the TGI in assay [1] is 62.4 µM; in assay [2] it was over 100 µM; in [7], over 100 µM; in [3], over 100 µM; in [5], over 100 µM; in assay [6] it was over 100 µM. In addition, the TGI in [9] and in assay [8] was over 100 µM in each case.

On to `CN1C(c2ccccc2)CC(C)(O)CC1c1ccccc1` (stereo not drawn), for which the TGI in assay [1], in assay [2], in assay [7], in [4], in assay [5] and in assay [6] was over 100 µM each time. Further, the TGI in assay [9] and in assay [8] was over 100 µM throughout.

As for `Cc1cc(O[C@@H]2O[C@@H](C)[C@H](O)[C@@H](O)[C@H]2O)c2c3c(c(O[C@@H]4O[C@@H](C)[C@H](O)[C@@H](O)[C@H]4O)cc2c1)C(=O)c1c(O)cccc1C3=O`, the GI50 in [1], in [2], in [7], in assay [5], in assay [10] and in [6] was over 30 µM each time. Moreover, the GI50 in assay [9] and in [8] was over 30 µM in each case. The TGI in assay [1], in assay [2], in assay [7], in [5], in assay [10] and in [6] was over 30 µM each time. Besides, the TGI in [9] and in assay [8] was over 30 µM throughout.

As to `Cc1cc(Cl)ccc1NC(=O)CC1SC(=NC(=O)c2ccccc2Cl)NC1=O` (stereo not drawn), the TGI in assay [2] was over 100 µM; in assay [7], over 100 µM; in assay [4], 35.8 µM; in assay [5], 71.2 µM; in assay [6], 35.4 µM; in [8], 4.72 µM.

Turning to `COc1cc(-c2cc(-c3cccs3)c(C#N)c(N3CCOCC3)n2)cc(OC)c1OC`, the GI50 is 2.3 µM in assay [1]; over 52.1 µM in assay [2]; 2.43 µM in assay [7]; 7.57 µM in assay [5]; 7.27 µM in assay [10]; 5.06 µM in assay [6]. For the same molecule, the GI50 is over 50.3 µM in assay [9] and 3.12 µM in [8]. In addition, the TGI is 6.62 µM in assay [1]; over 100 µM in [2]; over 43.1 µM in assay [7]; over 100 µM in assay [5]; over 100 µM in assay [10]; over 100 µM in [6]. In addition, the results for the TGI in assay [9] and in assay [8] were over 100 µM and 29.7 µM, respectively.

As for `N#CC(C(=O)/C(=N/NC(=O)c1ccccc1O)C(C#N)c1ccc(Br)cc1)c1ccc(Br)cc1` (stereo not drawn), the TGI in [1] is 30.1 µM; in assay [2] it was 16.4 µM; in assay [7] it was 26.8 µM; in [3], 20.5 µM; in assay [4], 25.2 µM; in assay [5] it was 28.2 µM. Besides, the TGI in [6] is 25.3 µM; in [9] it was over 100 µM.

Turning to `CC1NC(C(=O)O)Cc2cc(O)c(O)cc21` (stereo not drawn), the TGI in assay [1], in [2], in assay [7], in assay [5], in assay [10] and in assay [6] was over 100 µM throughout. The TGI in assay [9] and in [8] was over 100 µM throughout.

On to `C[C@]12CCCN1CC1=NNC(=O)c3cc(F)cc4[nH]c2c1c34`, for which the GI50 in [1] was 14.6 µM; in assay [2], 16.1 µM; in [7] it was 13.9 µM; in assay [5], 12.7 µM; in assay [10], 11.8 µM; in assay [6], 17.6 µM. Besides, the results for the GI50 in assay [9] and in assay [8] were 25.9 µM and 25 µM, respectively. Moreover, the TGI in [1] amounted to 40.6 µM; in assay [2], 54.6 µM; in assay [7], 34.3 µM; in assay [5], 28.3 µM; in [10], 62.5 µM; in [6], 57.7 µM. Further, the values for the TGI in assay [9] and in assay [8] were over 100 µM and 66.9 µM, respectively.
